The text below walks through data of US7981401B2, “Diuretic aerosols and methods of making and using them” (priority 2002, dated 2011).

Series [1] in a line: Volatilization on flashbar and HPLC purity analysis of the condensation aerosol. Format: physicochemical. Conditions: heated to about 400° C. within about 200 ms, 15 L/min air.
Text: Purity of a diuretic containing aerosol may be determined using a number of different methods. It should be noted that when the term “purity” is used, it refers to the percentage of aerosol minus the percent byproduct produced in its formation. Byproducts for example, are those unwanted products produced during vaporization. For example, byproducts include thermal degradation products as well as any unwanted metabolites of the active compound or compounds. Examples of suitable methods for determining aerosol purity are described in Sekine et al., Journal of Forensic Science 32:1271-1280 (1987) and in Martin et al., Journal of Analytic Toxicology 13:158-162 (1989).
One suitable method involves the use of a trap. In this method, the aerosol is collected in a trap in order to determine the percent or fraction of byproduct. Any suitable trap may be used. Suitable traps include filters, glass wool, impingers, solvent traps, cold traps, and the like. Filters are often most desirable. The trap is then typically extracted with a solvent, e.g. acetonitrile, and the extract subjected to analysis by any of a variety of analytical methods known in the art, for example, gas, liquid, and high performance liquid chromatography particularly useful.
(§1) About 1.1 mg of ethacrynic acid (MW 303, melting point 122° C., oral dose 25 mg) was dip coated onto the stainless steel surface of a flashbar apparatus at a thickness of about 1.32 μm. (The flashbar is a cylinder 3.5 cm long and 1.3 cm in diameter consisting of a hollow tube of 0.005″ thick stainless steel.) Brass electrodes were connected to either end of the steel cylinder. The coated flashbar was secured in an electrical mount, which connected to two 1.0 Farad capacitors in parallel. An airway was provided by a 2 cm diameter glass sleeve placed around the flashbar. 15 L/min of room air were pulled by a house vacuum through the vaporization chamber and a filter housing, which contained a two-micron Teflon filter. A power supply charged the capacitors to 20.5 volts, at which point the circuit was closed with a switch and the stainless steel flashbar was resistively heated to about 400° C. within about 200 milliseconds. The drug aerosolized and flowed through the airway and into the filter. The Teflon filter was extracted with 5 mL of acetonitrile, and the sample was run through an HPLC for purity analysis.
as §1, with “1.01” for “1.1”, “1.21” for “1.32”
About 1.09 mg of bumetanide (MW 364, melting point 231° C., oral dose 0.5 mg) was dip coated onto the stainless steel surface of a flashbar apparatus at a thickness of about 1.3 μm. (The flashbar is a cylinder 3.5 cm long and 1.3 cm in diameter consisting of a hollow tube of 0.005″ thick stainless steel.) Brass electrodes were connected to either end of the steel cylinder. The coated flashbar was secured in an electrical mount, which connected to two 1.0 Farad capacitors in parallel. […]

The format of series [2] is in vivo, Beagle dog. From the text: This example is meant to illustrate one way in which toxicology and pharmacokinetic data may be investigated with respect to the bumetanide condensation aerosols described herein. Toxicology and pharmacokinetic data may be gathered by studying daily oropharyngeal inhalation of bumetanide condensation aerosols over a 14 day period using a beagle dog model.
Before treatment initiation, all animals are weighed and assigned to treatment groups using a randomization procedure. Animals are assigned into the following groups: bumetanide high dose, bumetanide mid dose, bumetanide low dose, and vehicle control at 3 animals per sex per dose. The dose levels for bumetanide are generally approximately 0.1 mg/kg for the low dose group, 0.5 mg/kg for the mid dose group, and 2 mg/kg for the high dose group. The dose levels can be refined through an initial dose ranging toxicology study.
Animals are treated with the test aerosols using an oropharyngeal face mask fitted with inlet and outlet tubes. During treatment, animals are placed in a restraint sling. A mask that allows the inhalation of test material to dogs is used. The test article is generated by vaporizing bumetanide by heating to roughly 400° C. The bumetanide is an approximately 1 micron thick film coating on a stainless steel foil, which was deposited on the foil by dip coating the foil into a solution of bumetanide dissolved in organic solvent.
The resulting aerosol formed by the condensation of the vaporized bumetanide is introduced into a mixing chamber via pre-dried compressed air. The mixing chamber is operated under slight positive pressure maintained by means of a gate valve located in the exhaust line. A vacuum pump is used to exhaust the inhalation chamber at the required flow rate and draw the contaminated air (excess aerosol and expired air) through a purifying system consisting of a 5 μm coarse filter before expelling the air from the building. The resulting atmosphere is carried to the dog mask via a delivery tube.
To ensure that the doses are correct, prior to the start of the treatment each day, atmosphere characterization of the test article aerosol is performed. Analysis of the aerosol particle size distribution for each bumetanide dose is conducted using a Cascade Impactor. Typical mass median aerodynamic diameter and geometric standard deviation measured during the study are 1.5 μm±2. Actual mask output concentrations of aerosol are measured during each exposure day from a sampling port from the animal breathing zone.
The achieved dose of active ingredient (mg/kg/day) for each treatment level is determined as follows: Achieved Dose of Active Ingredient=[RMV×Active Concentration×T×D]/BW
Where the achieved dose of the active ingredient is in mg/kg/day; the RMV (i.e., respiratory minute volume) is in L/min; the Active Concentration (i.e., chamber concentration of active ingredient determined by chemical analysis) is in mg/L; T (i.e., treatment time) is in minutes; D is the total aerosol deposition fraction, according to the particle size; and BW (i.e., mean body weight per sex per group from the regular body weight occasions during treatment) is in kg.
Dogs are treated with the bumetanide aerosol using the above approach to deliver the drug aerosol and compute the delivered dose. The exposure period required to deliver a dose is typically approximately 10 minutes. Plasma samples for pharmacokinetic analysis are collected on one or more treatment days. Samples are typically collected pre-dose, 2 minutes into dosing, and the end of dosing, 20 minutes post dose, 1 hour post dose, 3 hours post dose, 9 hours post dose, and 24 hours post dose. Samples are analyzed by an appropriate method such as LC/MS or LC/MS/MS to determine the pharmacokinetics of bumetanide absorption and elimination. […]

As to `CC(=O)S[C@@H]1CC2=CC(=O)CC[C@]2(C)[C@H]2CC[C@@]3(C)[C@@H](CC[C@@]34CCC(=O)O4)[C@H]12` [spironolactone], the “aerosol purity (HPLC)” value in series [1] (film about 0.85 μm on stainless steel) and in series [1] (film about 1.01 μm on stainless steel) was 100% each time.

With `C=C(CC)C(=O)c1ccc(OCC(=O)O)c(Cl)c1Cl` [ethacrynic acid], the “aerosol purity (HPLC)” value in series [1] (film about 1.21 μm on stainless steel) is on record as 99.57%; in series [1] (film about 1.32 μm on stainless steel) it was 99.83%.

`CCCCNc1cc(C(=O)O)cc(S(N)(=O)=O)c1Oc1ccccc1` [bumetanide]: in series [1] (film about 1.3 μm on stainless steel), the “aerosol purity (HPLC)” value was 98.44%. In series [2] (Cascade Impactor, typical value during the study), the “mass median aerodynamic diameter of the aerosol” value is 1.5 μm. Further, in series [2] (dog, in vivo), the food consumption entry was “roughly normal”; the “gross pathology at necropsy” value is recorded as “No treatment related findings”; the “histopathological examination of gross lesions” value is on record as “no treatment related findings”; the “histopathological examination of larynx, trachea, mainstem bronchi, lungs” value is “No treatment related abnormalities are observed”. Moreover, in series [2] (dog, in vivo), the “time of peak plasma levels” value is no more than 10 min. Further, in series [2] (dog, inhalation), the “duration of the increase in urination following treatment” value was “approximately 4 hour” and the “urination immediately following drug administration” value is “an increase in urination is noted”.

Take `Nc1nc(N)c2nc(-c3ccccc3)c(N)nc2n1` [triamterene]: the “aerosol purity (HPLC)” value was 99.76% in series [1] (film about 0.97 μm, from 88% formic acid) and 100% in series [1] (film about 1.11 μm, manually coated).
